From patent publication US9340590B2 (priority 2011, dated 2016)
Where two headings read alike, the source gives them in different places. Positions of bridges follow the written chain, without caps; N, C: chain ends. Residues, ends and D or L forms follow the SMILES beside them.

Tests used:
Test in all cases: cell-based
hNav1.7 = hNav1.7 (Homo sapiens, UniProt Q15858); type: cell-based
hNav1.5 = hNav1.5 (Homo sapiens, UniProt Q14524)
hNav1.3 = hNav1.3 (Homo sapiens, UniProt Q9NY46)
[1] = IonWorks Quattro, Use, read-out: IWQ Use Nav1.5
[2] = IonWorks Quattro, Use, read-out: IWQ Use Nav1.3

hNav1.7, sequence (Q15858 whole entry, looked up): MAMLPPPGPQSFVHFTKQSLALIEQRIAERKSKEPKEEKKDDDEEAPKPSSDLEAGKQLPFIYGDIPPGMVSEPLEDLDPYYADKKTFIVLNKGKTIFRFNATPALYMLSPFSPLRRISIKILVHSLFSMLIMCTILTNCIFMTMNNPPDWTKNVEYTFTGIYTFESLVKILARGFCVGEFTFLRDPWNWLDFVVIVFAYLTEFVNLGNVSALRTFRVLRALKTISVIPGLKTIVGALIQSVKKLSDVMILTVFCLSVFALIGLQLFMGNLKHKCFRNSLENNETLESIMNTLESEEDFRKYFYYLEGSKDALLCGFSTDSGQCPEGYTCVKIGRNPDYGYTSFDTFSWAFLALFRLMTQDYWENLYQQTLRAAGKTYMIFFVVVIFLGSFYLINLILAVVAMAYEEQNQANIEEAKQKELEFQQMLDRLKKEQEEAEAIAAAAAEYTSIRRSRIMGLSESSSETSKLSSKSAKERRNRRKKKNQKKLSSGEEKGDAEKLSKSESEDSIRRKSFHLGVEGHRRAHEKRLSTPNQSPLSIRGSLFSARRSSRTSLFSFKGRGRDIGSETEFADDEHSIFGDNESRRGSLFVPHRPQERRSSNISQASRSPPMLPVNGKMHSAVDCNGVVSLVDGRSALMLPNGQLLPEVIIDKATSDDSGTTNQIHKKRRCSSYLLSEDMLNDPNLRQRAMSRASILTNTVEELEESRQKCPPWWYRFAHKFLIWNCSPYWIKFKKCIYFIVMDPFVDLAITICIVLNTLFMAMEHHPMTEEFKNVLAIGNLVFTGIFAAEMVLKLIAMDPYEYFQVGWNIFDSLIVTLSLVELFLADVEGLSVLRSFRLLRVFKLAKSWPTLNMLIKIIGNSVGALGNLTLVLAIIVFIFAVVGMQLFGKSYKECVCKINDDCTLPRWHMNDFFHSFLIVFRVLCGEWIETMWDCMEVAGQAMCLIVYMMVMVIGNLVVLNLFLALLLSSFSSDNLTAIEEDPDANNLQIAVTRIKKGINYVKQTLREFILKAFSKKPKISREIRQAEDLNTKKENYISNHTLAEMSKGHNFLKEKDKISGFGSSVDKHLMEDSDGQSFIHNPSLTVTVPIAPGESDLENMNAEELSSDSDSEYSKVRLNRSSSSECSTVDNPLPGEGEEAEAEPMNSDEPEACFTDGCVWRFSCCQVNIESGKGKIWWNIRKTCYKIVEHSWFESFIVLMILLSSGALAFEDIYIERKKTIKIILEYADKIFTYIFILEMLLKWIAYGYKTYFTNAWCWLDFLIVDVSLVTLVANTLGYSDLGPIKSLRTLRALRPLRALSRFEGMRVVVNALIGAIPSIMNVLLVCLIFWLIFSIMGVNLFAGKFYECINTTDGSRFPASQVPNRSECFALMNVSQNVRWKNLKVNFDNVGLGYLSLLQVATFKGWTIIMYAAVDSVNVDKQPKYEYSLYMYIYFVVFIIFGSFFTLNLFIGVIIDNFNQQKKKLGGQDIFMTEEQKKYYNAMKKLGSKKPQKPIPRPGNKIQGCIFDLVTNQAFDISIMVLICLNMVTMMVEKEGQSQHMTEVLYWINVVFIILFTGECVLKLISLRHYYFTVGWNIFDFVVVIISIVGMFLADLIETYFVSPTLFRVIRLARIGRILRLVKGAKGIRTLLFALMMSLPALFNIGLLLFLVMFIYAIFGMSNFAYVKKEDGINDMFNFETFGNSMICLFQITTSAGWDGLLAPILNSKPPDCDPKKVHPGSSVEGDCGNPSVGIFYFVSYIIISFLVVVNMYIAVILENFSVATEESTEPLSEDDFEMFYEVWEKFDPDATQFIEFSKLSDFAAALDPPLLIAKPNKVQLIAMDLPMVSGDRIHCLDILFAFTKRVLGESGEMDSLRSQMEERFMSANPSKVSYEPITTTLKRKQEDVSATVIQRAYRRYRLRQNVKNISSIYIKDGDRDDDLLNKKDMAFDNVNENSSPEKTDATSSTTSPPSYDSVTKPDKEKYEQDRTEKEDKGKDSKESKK
hNav1.5, sequence (Q14524 whole entry, looked up): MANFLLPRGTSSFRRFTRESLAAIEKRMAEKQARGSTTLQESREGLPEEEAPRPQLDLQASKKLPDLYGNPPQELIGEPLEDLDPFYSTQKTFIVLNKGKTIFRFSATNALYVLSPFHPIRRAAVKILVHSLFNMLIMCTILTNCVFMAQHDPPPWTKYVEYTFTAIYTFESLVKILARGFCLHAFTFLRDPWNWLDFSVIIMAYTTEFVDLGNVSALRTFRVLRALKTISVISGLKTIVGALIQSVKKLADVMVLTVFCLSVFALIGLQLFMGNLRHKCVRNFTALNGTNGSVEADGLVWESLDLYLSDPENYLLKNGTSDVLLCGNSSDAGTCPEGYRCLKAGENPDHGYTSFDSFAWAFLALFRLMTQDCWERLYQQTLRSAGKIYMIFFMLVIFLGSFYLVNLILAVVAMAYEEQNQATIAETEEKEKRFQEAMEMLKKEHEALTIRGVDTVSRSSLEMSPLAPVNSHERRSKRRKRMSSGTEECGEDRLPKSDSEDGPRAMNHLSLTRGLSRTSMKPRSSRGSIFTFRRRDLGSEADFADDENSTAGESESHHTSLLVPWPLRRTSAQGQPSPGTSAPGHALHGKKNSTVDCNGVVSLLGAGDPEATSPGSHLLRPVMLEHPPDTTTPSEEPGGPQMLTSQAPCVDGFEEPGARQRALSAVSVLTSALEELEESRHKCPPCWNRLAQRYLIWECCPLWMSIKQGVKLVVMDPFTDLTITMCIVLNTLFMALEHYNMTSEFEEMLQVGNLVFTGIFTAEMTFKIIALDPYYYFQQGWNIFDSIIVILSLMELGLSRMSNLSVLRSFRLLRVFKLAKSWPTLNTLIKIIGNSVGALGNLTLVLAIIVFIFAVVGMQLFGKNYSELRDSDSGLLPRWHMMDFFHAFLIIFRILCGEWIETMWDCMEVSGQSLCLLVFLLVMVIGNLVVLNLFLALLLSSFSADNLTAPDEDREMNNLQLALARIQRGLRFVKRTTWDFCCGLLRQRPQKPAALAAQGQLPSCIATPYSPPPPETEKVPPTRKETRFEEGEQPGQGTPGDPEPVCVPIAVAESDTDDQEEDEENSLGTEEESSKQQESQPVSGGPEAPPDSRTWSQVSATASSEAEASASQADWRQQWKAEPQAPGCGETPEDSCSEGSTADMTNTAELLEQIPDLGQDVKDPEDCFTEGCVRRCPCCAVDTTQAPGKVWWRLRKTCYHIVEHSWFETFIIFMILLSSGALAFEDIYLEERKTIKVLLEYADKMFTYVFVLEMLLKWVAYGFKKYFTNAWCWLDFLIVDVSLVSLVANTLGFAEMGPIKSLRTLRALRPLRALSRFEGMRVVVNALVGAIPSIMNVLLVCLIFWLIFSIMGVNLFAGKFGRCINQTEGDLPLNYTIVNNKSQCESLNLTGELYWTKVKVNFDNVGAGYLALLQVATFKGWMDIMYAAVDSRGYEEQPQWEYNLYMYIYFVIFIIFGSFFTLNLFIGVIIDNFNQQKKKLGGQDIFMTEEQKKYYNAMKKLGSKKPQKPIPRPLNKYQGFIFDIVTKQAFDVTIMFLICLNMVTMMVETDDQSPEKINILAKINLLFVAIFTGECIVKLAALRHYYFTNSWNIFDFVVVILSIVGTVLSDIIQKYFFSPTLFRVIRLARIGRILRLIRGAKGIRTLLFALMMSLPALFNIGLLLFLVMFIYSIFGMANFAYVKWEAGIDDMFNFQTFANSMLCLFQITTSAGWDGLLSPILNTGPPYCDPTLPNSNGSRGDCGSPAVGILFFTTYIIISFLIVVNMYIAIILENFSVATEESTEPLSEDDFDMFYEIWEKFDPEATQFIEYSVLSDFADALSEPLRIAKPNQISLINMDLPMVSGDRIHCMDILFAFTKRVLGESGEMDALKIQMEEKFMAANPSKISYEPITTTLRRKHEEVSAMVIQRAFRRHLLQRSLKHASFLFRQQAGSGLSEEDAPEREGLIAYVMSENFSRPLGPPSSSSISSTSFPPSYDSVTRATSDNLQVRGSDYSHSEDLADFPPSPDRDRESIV

CC[C@H](C)[C@@H]1NC(=O)[C@@H]2CSSC[C@@H]3NC(=O)[C@H](C(C)C)NC(=O)[C@H](CC(C)C)NC(=O)[C@H](CC(N)=O)NC(=O)[C@@H]4CCCN4C(=O)[C@H](CCCNC(=N)N)NC(=O)[C@H](CSSC[C@H](NC(=O)[C@@H](N)CC(=O)O)C(=O)N[C@@H](CC(C)C)C(=O)NCC(=O)N[C@@H](Cc4ccccc4)C(=O)N[C@@H](CCSC)C(=O)N[C@@H](CCCNC(=N)N)C(=O)N[C@@H](CCCCN)C(=O)N2)NC(=O)[C@H](CSSC[C@@H](C(=O)N[C@@H](CCCCN)C(=O)N[C@@H](Cc2ccc(O)cc2)C(=O)N[C@H](C(=O)N[C@@H](Cc2ccccc2)C(N)=O)C(C)C)NC(=O)[C@H](C)NC(=O)[C@H](CCCCN)NC(=O)[C@H](Cc2cnc[nH]2)NC(=O)[C@H]([C@@H](C)O)NC(=O)[C@H](CCCNC(=N)N)NC(=O)[C@H](CO)NC3=O)NC(=O)[C@H](CCCCN)NC(=O)[C@H](CC(=O)O)NC(=O)[C@H](CC(N)=O)NC(=O)[C@H](CC(=O)O)NC(=O)[C@@H]2CCCN2C1=O [compound 47] (H-DCLGFMRKCIPDNDKCCRPNLVCSRTHKACKYVF-NH2; disulfide 2-17, 9-23, 16-30)
IC50 (hNav1.7; Table 24, IonWorks Quattro, use, […], read-out: IWQ Use Nav1.7): 11.7 µM | IC50 (hNav1.5; Table 24, IonWorks Quattro, use, […], read-out: IWQ Use Nav1.5): 16.2 µM | IC50 (hNav1.3; Table 24, IonWorks Quattro, use, […], read-out: IWQ Use Nav1.3): 27.5 µM

CC[C@H](C)[C@@H]1NC(=O)[C@@H]2CSSC[C@@H]3NC(=O)[C@H](C(C)C)NC(=O)[C@H](CC(C)C)NC(=O)[C@H](CC(N)=O)NC(=O)[C@@H]4CCCN4C(=O)[C@H](CCCCN)NC(=O)[C@H](CSSC[C@H](NC(=O)[C@@H](N)CC(=O)O)C(=O)N[C@@H](CC(C)C)C(=O)NCC(=O)N[C@@H](Cc4ccccc4)C(=O)N[C@@H](CCSC)C(=O)N[C@@H](CCCNC(=N)N)C(=O)N[C@@H](CCCCN)C(=O)N2)NC(=O)[C@H](CSSC[C@@H](C(=O)N[C@@H](CCCCN)C(=O)N[C@@H](Cc2ccc(O)cc2)C(=O)N[C@H](C(=O)N[C@@H](Cc2ccccc2)C(N)=O)C(C)C)NC(=O)[C@H](Cc2c[nH]c4ccccc24)NC(=O)[C@H](CCCCN)NC(=O)[C@H](Cc2cnc[nH]2)NC(=O)[C@H]([C@@H](C)O)NC(=O)[C@H](CCCNC(=N)N)NC(=O)[C@H](CO)NC3=O)NC(=O)[C@H](CCCCN)NC(=O)[C@H](CC(=O)O)NC(=O)[C@H](CC(N)=O)NC(=O)[C@H](CC(=O)O)NC(=O)[C@@H]2CCCN2C1=O [compound 49] (H-DCLGFMRKCIPDNDKCCKPNLVCSRTHKWCKYVF-NH2; disulfide 2-17, 9-23, 16-30)
IC50 (hNav1.7): 0.3 µM | IC50 (hNav1.5; [1]): 17.6 µM | IC50 (hNav1.3; [2]): 0.21 µM

CC[C@H](C)[C@@H]1NC(=O)[C@@H]2CSSC[C@@H]3NC(=O)[C@H](C(C)C)NC(=O)[C@H](CC(C)C)NC(=O)[C@H](CCCCN)NC(=O)[C@@H]4CCCN4C(=O)[C@H](CCCNC(=N)N)NC(=O)[C@H](CSSC[C@H](NC(=O)[C@@H](N)CC(=O)O)C(=O)N[C@@H](CC(C)C)C(=O)NCC(=O)N[C@@H](Cc4ccccc4)C(=O)N[C@@H](CCSC)C(=O)N[C@@H](CCCNC(=N)N)C(=O)N[C@@H](CCCCN)C(=O)N2)NC(=O)[C@H](CSSC[C@@H](C(=O)N[C@@H](CCCCN)C(=O)N[C@@H](Cc2ccc(O)cc2)C(=O)N[C@H](C(=O)N[C@@H](Cc2ccccc2)C(N)=O)C(C)C)NC(=O)[C@H](Cc2c[nH]c4ccccc24)NC(=O)[C@H](CCCCN)NC(=O)[C@H](Cc2cnc[nH]2)NC(=O)[C@H]([C@@H](C)O)NC(=O)[C@H](CCCNC(=N)N)NC(=O)[C@H](CO)NC3=O)NC(=O)[C@H](CCCCN)NC(=O)[C@H](CC(=O)O)NC(=O)[C@H](CC(N)=O)NC(=O)[C@H](CC(=O)O)NC(=O)[C@@H]2CCCN2C1=O [compound 51] (H-DCLGFMRKCIPDNDKCCRPKLVCSRTHKWCKYVF-NH2; disulfide 2-17, 9-23, 16-30)
IC50 (hNav1.7; IonWorks Quattro, Use, read-out: IWQ Use Nav1.7): 0.61 µM | IC50 (hNav1.5; [1]): 19 µM | IC50 (hNav1.3; [2]): 0.33 µM

CC[C@H](C)[C@@H]1NC(=O)[C@@H]2CSSC[C@@H]3NC(=O)[C@H](CCCCN)NC(=O)[C@H](CC(C)C)NC(=O)[C@H](CC(N)=O)NC(=O)[C@@H]4CCCN4C(=O)[C@H](CCCNC(=N)N)NC(=O)[C@H](CSSC[C@H](NC(=O)[C@@H](N)CC(=O)O)C(=O)N[C@@H](CC(C)C)C(=O)NCC(=O)N[C@@H](Cc4ccccc4)C(=O)N[C@@H](CCSC)C(=O)N[C@@H](CCCNC(=N)N)C(=O)N[C@@H](CCCCN)C(=O)N2)NC(=O)[C@H](CSSC[C@@H](C(=O)N[C@@H](CCCCN)C(=O)N[C@@H](Cc2ccc(O)cc2)C(=O)N[C@H](C(=O)N[C@@H](Cc2ccccc2)C(N)=O)C(C)C)NC(=O)[C@H](Cc2c[nH]c4ccccc24)NC(=O)[C@H](CCCCN)NC(=O)[C@H](Cc2cnc[nH]2)NC(=O)[C@H]([C@@H](C)O)NC(=O)[C@H](CCCNC(=N)N)NC(=O)[C@H](CO)NC3=O)NC(=O)[C@H](CCCCN)NC(=O)[C@H](CC(=O)O)NC(=O)[C@H](CC(N)=O)NC(=O)[C@H](CC(=O)O)NC(=O)[C@@H]2CCCN2C1=O [compound 52] (H-DCLGFMRKCIPDNDKCCRPNLKCSRTHKWCKYVF-NH2; disulfide 2-17, 9-23, 16-30)
IC50 (hNav1.7): 0.19 µM | IC50 (hNav1.5; [1]): 15 µM | IC50 (hNav1.3; [2]): 0.08 µM

CC[C@H](C)[C@@H]1NC(=O)[C@@H]2CSSC[C@@H]3NC(=O)[C@H](C(C)C)NC(=O)[C@H](CC(C)C)NC(=O)[C@H](CC(N)=O)NC(=O)[C@@H]4CCCN4C(=O)[C@H](CCCNC(=N)N)NC(=O)[C@H](CSSC[C@H](NC(=O)[C@@H](N)CC(=O)O)C(=O)N[C@@H](CC(C)C)C(=O)NCC(=O)N[C@@H](Cc4ccccc4)C(=O)N[C@@H](CCSC)C(=O)N[C@@H](CCCNC(=N)N)C(=O)N[C@@H](CCCCN)C(=O)N2)NC(=O)[C@H](CSSC[C@@H](C(=O)N[C@@H](CCCCN)C(=O)N[C@@H](Cc2ccc(O)cc2)C(=O)N[C@H](C(=O)N[C@@H](Cc2ccccc2)C(N)=O)C(C)C)NC(=O)[C@H](Cc2c[nH]c4ccccc24)NC(=O)[C@H](CCCCN)NC(=O)[C@H](Cc2cnc[nH]2)NC(=O)[C@H](CCCCN)NC(=O)[C@H](CCCNC(=N)N)NC(=O)[C@H](CO)NC3=O)NC(=O)[C@H](CCCCN)NC(=O)[C@H](CC(=O)O)NC(=O)[C@H](CC(N)=O)NC(=O)[C@H](CC(=O)O)NC(=O)[C@@H]2CCCN2C1=O [compound 54] (H-DCLGFMRKCIPDNDKCCRPNLVCSRKHKWCKYVF-NH2; disulfide 2-17, 9-23, 16-30)
IC50 (hNav1.7; Table 22, IonWorks Quattro, use, […], read-out: IWQ Use Nav1.7): 0.05 µM | IC50 (hNav1.5; Table 22, IonWorks Quattro, use, […], read-out: IWQ Use Nav1.5): 7.96 µM | IC50 (hNav1.3; Table 22, IonWorks Quattro, use, […], read-out: IWQ Use Nav1.3): 0.02 µM

CC[C@H](C)[C@@H]1NC(=O)[C@@H]2CSSC[C@@H]3NC(=O)[C@H](C(C)C)NC(=O)[C@H](CC(C)C)NC(=O)[C@H](CC(N)=O)NC(=O)[C@@H]4CCCN4C(=O)[C@H](CCCNC(=N)N)NC(=O)[C@H](CSSC[C@H](NC(=O)[C@@H](N)CC(=O)O)C(=O)N[C@@H](CC(C)C)C(=O)NCC(=O)N[C@@H](Cc4ccccc4)C(=O)N[C@@H](CCSC)C(=O)N[C@@H](CCCNC(=N)N)C(=O)N[C@@H](CCCCN)C(=O)N2)NC(=O)[C@H](CSSC[C@@H](C(=O)N[C@@H](CCCCN)C(=O)N[C@@H](Cc2ccc(O)cc2)C(=O)N[C@H](C(=O)N[C@@H](Cc2ccccc2)C(N)=O)C(C)C)NC(=O)[C@H](Cc2c[nH]c4ccccc24)NC(=O)[C@H](CCCCN)NC(=O)[C@H](CCCCN)NC(=O)[C@H]([C@@H](C)O)NC(=O)[C@H](CCCNC(=N)N)NC(=O)[C@H](CO)NC3=O)NC(=O)[C@H](CCCCN)NC(=O)[C@H](CC(=O)O)NC(=O)[C@H](CC(N)=O)NC(=O)[C@H](CC(=O)O)NC(=O)[C@@H]2CCCN2C1=O [compound 55] (H-DCLGFMRKCIPDNDKCCRPNLVCSRTKKWCKYVF-NH2; disulfide 2-17, 9-23, 16-30)
IC50 (hNav1.7; Table 23, IonWorks Quattro, use, […], read-out: IWQ Use Nav1.7): 1.51 µM | IC50 (hNav1.5; Table 23, IonWorks Quattro, use, […], read-out: IWQ Use Nav1.5): 11.5 µM | IC50 (hNav1.3; Table 23, IonWorks Quattro, use, […], read-out: IWQ Use Nav1.3): 2.48 µM

CC[C@H](C)[C@@H]1NC(=O)[C@@H]2CSSC[C@@H]3NC(=O)[C@H](C(C)C)NC(=O)[C@H](CC(C)C)NC(=O)[C@H](CC(N)=O)NC(=O)[C@@H]4CCCN4C(=O)[C@H](CCCNC(=N)N)NC(=O)[C@H](CSSC[C@H](NC(=O)[C@@H](N)CC(=O)O)C(=O)N[C@@H](CC(C)C)C(=O)NCC(=O)N[C@@H](Cc4ccccc4)C(=O)N[C@@H](CCSC)C(=O)N[C@@H](CCCNC(=N)N)C(=O)N[C@@H](CCCCN)C(=O)N2)NC(=O)[C@H](CSSC[C@@H](C(=O)N[C@@H](CCCCN)C(=O)N[C@@H](Cc2ccc(O)cc2)C(=O)N[C@H](C(=O)N[C@@H](Cc2ccccc2)C(N)=O)C(C)C)NC(=O)[C@H](CCCCN)NC(=O)[C@H](CCCCN)NC(=O)[C@H](Cc2cnc[nH]2)NC(=O)[C@H]([C@@H](C)O)NC(=O)[C@H](CCCNC(=N)N)NC(=O)[C@H](CO)NC3=O)NC(=O)[C@H](CCCCN)NC(=O)[C@H](CC(=O)O)NC(=O)[C@H](CC(N)=O)NC(=O)[C@H](CC(=O)O)NC(=O)[C@@H]2CCCN2C1=O [compound 56] (H-DCLGFMRKCIPDNDKCCRPNLVCSRTHKKCKYVF-NH2; disulfide 2-17, 9-23, 16-30)
IC50 (hNav1.7): 20.1 µM | IC50 (hNav1.5; IWQ Use Nav1.5 (μM)): 14.7 µM | IC50 (hNav1.3): 24.5 µM
